Reference: a compilation of properties of binary mixtures (doi:10.1021/acs.jced.1c00387)

Assay: xn = mol fraction of the nth substance listed
Conditions: 81.5 kPa

OCCNCCO + CC(=O)[O-].CC[n+]1ccn(C)c1
viscosity [mPa·s]
Conditions | 293.15 K | 303.15 K | 313.15 K | 323.15 K | 333.15 K | 343.15 K | 353.15 K
x1 = 0.2 | 202 | – | – | 41.2 | 28.3 | 20.4 | 15.3
x1 = 0.4 | 197 | 108 | 65.2 | 42.4 | – | 21.2 | 15.9
x1 = 0.6 | 214 | – | 68.6 | 43.9 | 29.8 | 21.3 | –
x1 = 0.8 | – | 175 | 95.6 | 56.8 | 36.1 | 24.4 | –
x1 = 1 | – | – | 191 | 102 | 58.2 | 35.5 | 23

CC(=O)[O-].CC[n+]1ccn(C)c1 + OCCNCCO
x2 = 0
Conditions | viscosity [mPa·s]
323.15 K | 39.4
343.15 K | 19.3
353.15 K | 14.6

CC(=O)[O-].CC[n+]1ccn(C)c1 + CN(CCO)CCO
viscosity [mPa·s]
Conditions | 293.15 K | 303.15 K | 313.15 K | 323.15 K | 333.15 K | 343.15 K | 353.15 K
x2 = 0 | 204 | 106 | 61.6 | 39.4 | – | 19.3 | –
x2 = 0.2 | 193 | 105 | 63.5 | 41.3 | 28.6 | 20.7 | 15.7
x2 = 0.4 | – | 96 | 59.8 | – | 28.1 | 20.6 | 15.6
x2 = 0.6 | 128 | 76.2 | 48.8 | 33.2 | 23.6 | 17.5 | 13.4
x2 = 0.8 | 109 | 61.5 | 39.1 | 26.4 | 18.7 | 13.7 | –

CC(C)(N)CO + CC(=O)[O-].CC[n+]1ccn(C)c1
viscosity [mPa·s]
Conditions | 293.15 K | 303.15 K | 313.15 K | 323.15 K | 333.15 K | 343.15 K | 353.15 K
x1 = 0.2 | 198 | 104 | 60.3 | 38.3 | 26 | 18.6 | 13.5
x1 = 0.4 | 136 | 74.9 | 45.5 | 29.9 | 20.9 | – | 11.7
x1 = 0.6 | 94.7 | – | 33.2 | – | 15.7 | – | 8.8
x1 = 0.8 | – | – | 29.3 | 18.6 | – | – | 6.8
x1 = 1 | – | – | 54.4 | 25.5 | 14.6 | 9.2 | 5.9

CC(=O)[O-].CC[n+]1ccn(C)c1 + CC(C)(N)CO
x2 = 0
Conditions | viscosity [mPa·s]
293.15 K | 204
303.15 K | 106
313.15 K | 61.6
323.15 K | 39.4
333.15 K | 26.8
343.15 K | 19.3
353.15 K | 14.6

CN(CCO)CCO + CC(=O)[O-].CC[n+]1ccn(C)c1
x1 = 1
Conditions | viscosity [mPa·s]
303.15 K | 58
323.15 K | 22.1
333.15 K | 14.9
343.15 K | 10.4
353.15 K | 7.4
